Measurements taken from patent publication US20150031572A1, “MEANS AND METHODS FOR ASSESSING NEURONAL TOXICITY” (priority 2012, published 2015).
Where a name gives a salt, the structure may show the parent alone. Marks after values point to notes of the source that are not given here.

Test: Plasma metabolite profiling (GC-MS, LC-MS, SPE-LC-MS) of rats dosed once daily over 28 days; treatment ratios versus untreated control
Type: in vivo, rat
Conditions: for DAG (C18:1,C18:2), ratio versus control / Serotonin (5-HT), ratio versus control: Table 8b
Description: A group of each 5 male and female rats was dosed once daily with the indicated compounds (see Table 10, below for compounds, applied doses and administration details) over 28 days.
Each dose group in the studies consisted of five rats per sex. Additional groups of each 5 male and female animals served as controls. Before starting the treatment period, animals, which were 62-64 days old when supplied, were acclimatized to the housing and environmental conditions for 7 days. All animals of the animal population were kept under the same constant temperature (20-24±3° C.) and the same constant humidity (30-70%). The animals of the animal population were fed ad libitum. The food to be used was essentially free of chemical or microbial contaminants. Drinking water was also offered ad libitum. Accordingly, the water was free of chemical and microbial contaminants as laid down in the European Drinking Water Directive 98/83/EG. The illumination period was 12 hours light followed by 12 hours darkness (12 hours light, from 6:00 to 18:00, and 12 hours darkness, from 18:00 to 6:00). […] The test substances (compounds) in the Tables 1 to 9 below were dosed and administered as described in the Table 10 above.
In the morning of day 7, 14, and 28, blood was taken from the retro-orbital venous plexus from fasted anaesthetized animals. From each animal, 1 ml of blood was collected with EDTA as anticoagulant. The samples were centrifuged for generation of plasma. All plasma samples were covered with a N2 atmosphere and then stored at −80° C. until analysis.
For mass spectrometry-based metabolite profiling analyses plasma samples were extracted and a polar and a non-polar (lipid) fraction was obtained. For GC-MS analysis, the non-polar fraction was treated with methanol under acidic conditions to yield the fatty acid methyl esters. Both fractions were further derivatised with O-methyl-hydroxyamine hydrochloride and pyridine to convert Oxogroups to O-methyloximes and subsequently with a silylating agent before analysis. In LC-MS analysis, both fractions were reconstituted in appropriate solvent mixtures. HPLC was performed by gradient elution on reversed phase separation columns. Mass spectrometric detection which allows target and high sensitivity MRM (Multiple Reaction Monitoring) profiling in parallel to a full screen analysis was applied as described in WO2003073464.
Steroids and their metabolites were measured by online SPE-LC-MS (Solid phase extraction-LC-MS).
Following comprehensive analytical validation steps, the data for each analyte were normalized against data from pool samples. These samples were run in parallel through the whole process to account for process variability. The significance of treatment group values specific for sex, treatment duration and metabolite was determined by comparing means of the treated groups to the means of the respective untreated control groups using WELCH-test and quantified with treatment ratios versus control and p-values.
The identification of the most important biomarkers per toxicity pattern was done by a ranking of the analytes in the tables below. Therefore the metabolic changes in reference treatments of a given pattern (shown in the table) were compared with changes of the same metabolite in other unrelated treatments. […] The maximum absolute value of the respective TVALUE was taken to indicate the most important metabolite for the pattern.

[1] = plasma, female rats, day 28, high dose, Table 6b
[2] = plasma, female rats, day 7, high dose, Table 4a
[3] = plasma, female rats, day 7, high dose, Table 4b
[4] = plasma, female rats, day 14, high dose, Table 4a
[5] = plasma, female rats, day 14, high dose, Table 4b
[6] = plasma, female rats, day 28, high dose, Table 4a
[7] = plasma, female rats, day 28, high dose, Table 4b
[8] = plasma, male rats, day 7, high dose, Table 8a
[9] = plasma, male rats, day 7, high dose
[10] = plasma, male rats, day 14, high dose, Table 8a
[11] = plasma, male rats, day 14, high dose
[12] = plasma, male rats, day 28, high dose, Table 8a
[13] = plasma, male rats, day 28, high dose

With `C=CCN1C[C@H](C(=O)N(CCCN(C)C)C(=O)NCC)C[C@@H]2c3cccc4[nH]cc(c34)C[C@H]21` [Cabergoline] as the compound, how does the “Isoleucine, ratio versus control” value (plasma, female rats, day 28, high dose, Table 6a) read?
Its value is 1.14*.

And the “4-Hydroxy-3-methoxyphenylglycol (HMPG), ratio versus control” value [1]?
The value was 0.79*.

What about the “14-Methylhexadecanoic acid, ratio versus control” value [1] of the same compound?
The value was 0.74*.

And the “16-Methylheptadecanoic acid, ratio versus control” value [1]?
The value was 0.28*.

What about the “17-Methyloctadecanoic acid, ratio versus control” value [1] of the same compound?
The value was 0.3*.

What about the “Ceramide (d18:1,C24:1), ratio versus control” value [1] of the same compound?
The value was 0.39*.

And the “Choline plasmalogen No 03, ratio versus control” value [1]?
Its value is 0.39*.

What about the “Homovanillic acid (HVA), ratio versus control” value [1] of the same compound?
Its value is 0.41*.

What about the “Isopalmitic acid (C16:0), ratio versus control” value [1] of the same compound?
Its value is 0.36*.

What about the “Lactate, ratio versus control” value [1] of the same compound?
The value was 0.7*.

What about the “Myristic acid (C14:0), ratio versus control” value [1] of the same compound?
Its value is 0.33*.

And the “Phosphatidylcholine (C16:0, C20:4), ratio versus control” value [1]?
The value was 0.97.

And the “Phosphatidylcholine No 04, ratio versus control” value [1]?
The value was 0.34*.

And the “Pyruvate, ratio versus control” value [1]?
The value was 0.93.

And the “3-Methoxytyrosine, ratio versus control” value (rat, in vivo)?
The value was 1.24*.

Which results are given for `CN(C)CCCN1c2ccccc2Sc2ccc(Cl)cc21` [Chlorpromazine]?
Ceramide (d18:1,C24:1), ratio versus control [2]: 2.34*; Docosapentaenoic acid (C22:cis[7,10,13,16,19]5), ratio versus control [2]: 1.46; Elaidic acid (C18:trans[9]1), ratio versus control [2]: 1.46; Myristic acid (C14:0), ratio versus control [2]: 0.91; Phosphatidylcholine (C16:0,C16:0), ratio versus control [2]: 1.11*; Phosphatidylcholine (C16:1,C18:2), ratio versus control [2]: 1.38*; TAG No 07, ratio versus control [2]: 2.57*; myo-Inositol, lipid fraction, ratio versus control [2]: 1.42; Creatinine, ratio versus control [3]: 0.97; Glutamate, ratio versus control [3]: 0.83*; Glycine, ratio versus control [3]: 1.01; Lactate, ratio versus control [3]: 0.65*; Myristic acid (C14:0), ratio versus control [3]: 0.91; Uric acid, ratio versus control [3]: 0.62*; Ceramide (d18:1,C24:1), ratio versus control [4]: 1.44*; Docosapentaenoic acid (C22:cis[7,10,13,16,19]5), ratio versus control [4]: 1.17; Galactose, lipid fraction, ratio versus control [4]: 1; Myristic acid (C14:0), ratio versus control [4]: 1.04; Phosphatidylcholine (C16:0,C16:0), ratio versus control [4]: 1.3*; Phosphatidylcholine (C16:1,C18:2), ratio versus control [4]: 1.02; TAG No 07, ratio versus control [4]: 1.79; myo-Inositol, lipid fraction, ratio versus control [4]: 1.02; Creatinine, ratio versus control [5]: 0.86; Glutamate, ratio versus control [5]: 0.93*; Lactate, ratio versus control [5]: 0.97; Myristic acid (C14:0), ratio versus control [5]: 1.04; Uric acid, ratio versus control [5]: 0.84; Ceramide (d18:1,C24:1), ratio versus control [6]: 1.22; Docosapentaenoic acid (C22:cis[7,10,13,16,19]5), ratio versus control [6]: 1.18*; Elaidic acid (C18:trans[9]1), ratio versus control [6]: 0.98; Galactose, lipid fraction, ratio versus control [6]: 0.91; Myristic acid (C14:0), ratio versus control [6]: 0.89; Phosphatidylcholine (C16:0,C16:0), ratio versus control [6]: 1.14; Phosphatidylcholine (C16:1,C18:2), ratio versus control [6]: 1; TAG No 07, ratio versus control [6]: 2.1*; myo-Inositol, lipid fraction, ratio versus control [6]: 0.96; Creatinine, ratio versus control [7]: 0.84*; Glutamate, ratio versus control [7]: 1.05; Glycine, ratio versus control [7]: 1.01; Lactate, ratio versus control [7]: 0.94; Myristic acid (C14:0), ratio versus control [7]: 0.89*; Uric acid, ratio versus control [7]: 0.88; Elaidic acid (C18:trans[9]1), ratio versus control (rat, in vivo): 1.16*; Galactose, lipid fraction, ratio versus control (rat, in vivo): 1.34*; Glycine, ratio versus control (rat, in vivo): 1.06*

For `CNCCC(Oc1ccc(C(F)(F)F)cc1)c1ccccc1` (stereo not drawn) [Fluoxetine hydrochloride], which “Ceramide (d18:1,C24:1), ratio versus control” value [8] is on record?
Its value is 1.77.

What about the “threo-Sphingosine, ratio versus control” value [8] of the same compound?
The value was 1.2.

And the “DAG (C18:1,C18:2), ratio versus control” value [9]?
Its value is 0.65*.

And the “Serotonin (5-HT), ratio versus control” value [9]?
The value was 0.33*.

What about the “4-Hydroxysphinganine (t18:0, Phytosphingosine), total, ratio versus control” value (“4-Hydroxysphinganine … ratio versus control” for short) [10] of the same compound?
Its value is 1.51*.

What about the “Ceramide (d18:1,C24:1), ratio versus control” value [10] of the same compound?
The value was 1.91*.

And the “DAG (C18:1,C18:2), ratio versus control” value [11]?
The value was 0.64*.

What about the “Serotonin (5-HT), ratio versus control” value [11] of the same compound?
The value was 0.07*.

And the “4-Hydroxysphinganine … ratio versus control” value [12]?
Its value is 2.57*.

What about the “Ceramide (d18:1,C24:1), ratio versus control” value [12] of the same compound?
Its value is 1.85*.

What about the “threo-Sphingosine, ratio versus control” value [12] of the same compound?
Its value is 2.2*.

What about the “DAG (C18:1,C18:2), ratio versus control” value [13] of the same compound?
The value was 0.63*.

And the “Serotonin (5-HT), ratio versus control” value [13]?
Its value is 0.28*.

What about the “4-Hydroxysphinganine … ratio versus control” value (rat, in vivo) of the same compound?
The value was 1.34*.

What about the “threo-Sphingosine, ratio versus control” value (rat, in vivo) of the same compound?
The value was 1.45*.
